The record followed here is patent US20140243292A1, “SUBSITUTED 2-(CHROMAN-6-YLOXYL)-THIAZOLES AND THEIR USE AS PHARMACEUTICALS” (Sanofi, priority 2011, published 2014).

The structures appear in SMILES notation. Counter-ions that a name gives are not always drawn.

In one test the target is T1, human NCX1 (Homo sapiens, UniProt P32418).
T1 construct: expressed in transfected cells
The experiment in a line: NCX1 inhibition, reverse mode (Ca2+ influx into cells), FLIPR Fluo-4 assay. As to conditions: NCX1 reverse mode; at 30 μM; read-out: Inhibition in % at 30 μM (NCX1rv; IC50 value not determined). Type of test: cell-based. The essentials: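 Max−min Fluo-4 fluorescence (520 nm, FLIPR, 240 points at 2 s) after 20 µM final gramicidin, which drives Na+ loading and reverse-mode Ca2+ entry, gave % inhibition and IC50. Test compound was preincubated 45 min at 16 °C with Fluo-4-loaded CHO cells stably expressing human NCX1, in pH 7.4 buffer containing 3.5 mM CaCl2 and probenecid.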
On to `CCOC(=O)C[C@H](O)[C@H](CC1CCCCC1)NC(=O)c1cnc(Oc2ccc3c(c2)CC[C@@H](c2ccccc2)O3)s1` [compound 227], for which the inhibition at 30 µM worked out at 30%.

As to `CC(C)C[C@@H](NC(=O)c1cnc(Oc2ccc3c(c2)CC[C@@H](c2ccccc2)O3)s1)C(=O)OC(C)(C)C` [compound 228], the inhibition at 30 µM is 46%.

Regarding `CC(C)C[C@H](NC(=O)c1cnc(Oc2ccc3c(c2)CC[C@@H](c2ccccc2)O3)s1)C(=O)OC(C)(C)C` [compound 229], the inhibition at 30 µM was found to be 44%.

`O=C(O)CNC(=O)c1cnc(Oc2ccc3c(c2)CCC(c2cccnc2)O3)s1` (centres unmarked) [compound 260]: the inhibition at 30 µM stood at 38%.

The test is the same for the next values; noted with them: inhibition of NCX1 in reverse mode (Ca2+ influx into cells); read-out: NCX1rv IC50.
Turning to `COC(=O)C1CN(C(=O)c2cnc(Oc3ccc4c(c3)CC[C@@H](c3ccccc3)O4)s2)CC1C(F)(F)F` (some centres unmarked) [compound 221], the IC50 came to 300 nM.

On to `COC(=O)[C@@H]1[C@@H]2C[C@@H]2CN1C(=O)c1cnc(Oc2ccc3c(c2)CC[C@@H](c2ccccc2)O3)s1` [compound 222], for which the IC50 is 900 nM.

Consider `COC(=O)[C@@H]1CC(C)(C)CN1C(=O)c1cnc(Oc2ccc3c(c2)CC[C@@H](c2ccccc2)O3)s1` [compound 223], for which the IC50 worked out at 1300 nM.

Regarding `COC(=O)C1CN(C(=O)c2cnc(Oc3ccc4c(c3)CC[C@@H](c3ccccc3)O4)s2)CC1C` (some centres unmarked) [compound 224], the IC50 turned out to be 300 nM.

Regarding `COC(=O)C1(C)CCN(C(=O)c2cnc(Oc3ccc4c(c3)CC[C@@H](c3ccccc3)O4)s2)C1` (some centres unmarked) [compound 225], the IC50 worked out at 500 nM.

As to `COC(=O)[C@H](O)[C@H](CC(C)C)NC(=O)c1cnc(Oc2ccc3c(c2)CC[C@@H](c2ccccc2)O3)s1` [compound 226], the IC50 was 700 nM.

Regarding `CCOC(=O)C(CNC(=O)c1cnc(Oc2ccc3c(c2)CC[C@@H](c2ccccc2)O3)s1)CC(C)C` (some centres unmarked) [compound 230], the IC50 was found to be 1500 nM.

As for `COC(=O)C(C)(CC(C)C)NC(=O)c1cnc(Oc2ccc3c(c2)CC[C@@H](c2ccccc2)O3)s1` (some centres unmarked) [compound 231], the IC50 was determined as 1500 nM.

`Cc1ccc(C2CCc3cc(Oc4ncc(C(=O)NCc5ccno5)s4)ccc3O2)cn1` (centres unmarked) [compound 232]: the IC50 stood at 1500 nM.

For `CC(Cc1ccccc1)(NC(=O)c1cnc(Oc2ccc3c(c2)CC[C@@H](c2ccccc2)O3)s1)C(=O)O` (some centres unmarked) [compound 233], the IC50 stood at 800 nM.

On to `CC1(C)C[C@@H](C(=O)O)N(C(=O)c2cnc(Oc3ccc4c(c3)CC[C@@H](c3ccccc3)O4)s2)C1` [compound 234], for which the IC50 came to 1000 nM.

For `CC1CN(C(=O)c2cnc(Oc3ccc4c(c3)CC[C@@H](c3ccccc3)O4)s2)CC1C(=O)O` (some centres unmarked) [compound 235], the IC50 amounted to 500 nM.

Consider `CC(C)C[C@H](NC(=O)c1cnc(Oc2ccc3c(c2)CC[C@@H](c2ccccc2)O3)s1)[C@@H](O)C(=O)O` [compound 236], for which the IC50 turned out to be 1600 nM.

`CC(C)C[C@@H](NC(=O)c1cnc(Oc2ccc3c(c2)CC[C@@H](c2ccccc2)O3)s1)C(=O)O` [compound 237]: the IC50 came to 800 nM.

Consider `CC(C)CC(CNC(=O)c1cnc(Oc2ccc3c(c2)CC[C@@H](c2ccccc2)O3)s1)C(=O)O` (some centres unmarked) [compound 238], for which the IC50 amounted to 300 nM.

On to `CC1(C(=O)O)CCN(C(=O)c2cnc(Oc3ccc4c(c3)CC[C@@H](c3ccccc3)O4)s2)C1` (some centres unmarked) [compound 239], for which the IC50 stood at 2400 nM.

`O=C(O)C[C@H](O)[C@H](CC1CCCCC1)NC(=O)c1cnc(Oc2ccc3c(c2)CC[C@@H](c2ccccc2)O3)s1` [compound 240]: the IC50 was found to be 1100 nM.

For `CC(C)C[C@H](NC(=O)c1cnc(Oc2ccc3c(c2)CC[C@@H](c2ccccc2)O3)s1)C(=O)O` [compound 241], the IC50 was found to be 600 nM.

Turning to `CC(C)CC(C)(NC(=O)c1cnc(Oc2ccc3c(c2)CC[C@@H](c2ccccc2)O3)s1)C(=O)O` (some centres unmarked) [compound 242], the IC50 was determined as 700 nM.

In the case of `O=C(N[C@@H](Cc1ccccc1)C(=O)O)c1cnc(Oc2ccc3c(c2)CC[C@@H](c2ccccc2)O3)s1` [compound 244], the IC50 turned out to be 600 nM.

`COC(=O)CNCc1cnc(Oc2ccc3c(c2)CC[C@@H](c2ccccc2)O3)s1` [compound 245]: the IC50 was 100 nM.

Consider `O=C(O)CNCc1cnc(Oc2ccc3c(c2)CC[C@@H](c2ccccc2)O3)s1` [compound 246], for which the IC50 came out at 600 nM.

For `O=C(NCc1ccnc(Cl)c1)c1cnc(Oc2ccc3c(c2)CCC(c2cncc(F)c2)O3)s1` (centres unmarked) [compound 247], the IC50 came to 700 nM.

With `O=C(NCc1ccno1)c1cnc(Oc2ccc3c(c2)CCC(c2cncc(F)c2)O3)s1` (centres unmarked) [compound 248], the IC50 worked out at 800 nM.

As to `O=C(NCCO)c1cnc(Oc2ccc3c(c2)CCC(c2cccnc2)O3)s1` (centres unmarked) [compound 249], the IC50 stood at 1400 nM.

For `COC(=O)CNC(=O)c1cnc(Oc2ccc3c(c2)CCC(c2cccnc2)O3)s1` (centres unmarked) [compound 250], the IC50 was determined as 1200 nM.

For the compound `O=C(N[C@H](CO)c1ccccc1)c1cnc(Oc2ccc3c(c2)CCC(c2cccnc2)O3)s1` (some centres unmarked) [compound 251], the IC50 was determined as 1100 nM.

Take `O=C(NC(CCO)C1CC1)c1cnc(Oc2ccc3c(c2)CCC(c2cccnc2)O3)s1` (centres unmarked) [compound 252]: the IC50 stood at 3200 nM.

In the case of `O=C(NCCO)c1cnc(Oc2ccc3c(c2)CCC(c2cncc(F)c2)O3)s1` (centres unmarked) [compound 253], the 50% inhibitory concentration (IC50) is 600 nM.

Turning to `CO[C@H]1CNC[C@@H]1NC(=O)c1cnc(Oc2ccc3c(c2)CC[C@@H](c2ccccc2)O3)s1` [compound 254], the concentration for half-maximal inhibition (IC50) worked out at 400 nM.

In the case of `N[C@H]1C[C@@H]1NC(=O)c1cnc(Oc2ccc3c(c2)CC[C@@H](c2ccccc2)O3)s1` [compound 256], the IC50 was 300 nM.

Turning to `NC1CC(NC(=O)c2cnc(Oc3ccc4c(c3)CC[C@@H](c3ccccc3)O4)s2)C1` (some centres unmarked) [compound 257], the IC50 is 400 nM.

On to `OCCN(CCO)Cc1cnc(Oc2ccc3c(c2)CC[C@@H](c2ccccc2)O3)s1` [compound 258], for which the IC50 was 200 nM.

For `O=C(c1cnc(Oc2ccc3c(c2)CCC(c2cccnc2)O3)s1)N1CCC[C@H]1CO` (some centres unmarked) [compound 259], the IC50 was found to be 1800 nM.

Regarding `CC[C@H](C)[C@H](NC(=O)c1cnc(Oc2ccc3c(c2)CCC(c2cccnc2)O3)s1)C(=O)OC` (some centres unmarked) [compound 261], the IC50 is 3100 nM.

For the compound `CCOC(=O)[C@H](Cc1ccccc1)NC(=O)c1cnc(Oc2ccc3c(c2)CCC(c2cccnc2)O3)s1` (some centres unmarked) [compound 262], the IC50 was 800 nM.

For `CCOC(=O)[C@@H](NC(=O)c1cnc(Oc2ccc3c(c2)CCC(c2cccnc2)O3)s1)C(C)C` (some centres unmarked) [compound 263], the IC50 amounted to 25200 nM.

As for `COC(=O)[C@@H](NC(=O)c1cnc(Oc2ccc3c(c2)CCC(c2cccnc2)O3)s1)C(C)(C)C` (some centres unmarked) [compound 264], the IC50 amounted to 3100 nM.

As to `NC1CC(NC(=O)c2cnc(Oc3ccc4c(c3)CCC(c3cccnc3)O4)s2)C1` (centres unmarked) [compound 265, hydrochloride], the IC50 was determined as 7300 nM.

For the compound `OCCNCc1cnc(Oc2ccc3c(c2)CC[C@@H](c2ccccc2)O3)s1` [compound 266], the IC50 was found to be 100 nM.

Turning to `N[C@H]1C[C@@H]1NC(=O)c1cnc(Oc2ccc3c(c2)CCC(c2cccnc2)O3)s1` (some centres unmarked) [compound 267, hydrochloride], the IC50 amounted to 600 nM.

Turning to `O=C(NC1C2CNCC21)c1cnc(Oc2ccc3c(c2)CCC(c2cccnc2)O3)s1` (centres unmarked) [compound 268], the IC50 turned out to be 2500 nM.

As for `CO[C@H]1CNC[C@@H]1NC(=O)c1cnc(Oc2ccc3c(c2)CCC(c2cccnc2)O3)s1` (some centres unmarked) [compound 269, hydrochloride], the IC50 was 2600 nM.
